According to US12115178B2, “Acylated active agents and methods of their use for the treatment of autoimmune disorders” (Flagship Pioneering Innovations V, Inc., priority 2018, dated 2024):

Tests used:
Assay type in all cases: in vitro ADME
[1] = Assay 2. Stability in Simulated Intestinal Fluid (SIF); details: SIF pH 6.7 with pancreatin, 1 μM, 37° C.
Outline: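 Degradation rates came from LC/MS of acetonitrile-quenched samples drawn at intervals, starting at T0. The medium was freshly made pH 6.7 FaSSIF containing pancreatin, and test compound was present at 1 µM while being shaken at 37 °C.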

[2] = Assay 3. In vitro Colonic Material Stability Assay; details: colonic material slurry, anaerobic, 1 or 10 μM
Method: Assay 3. In vitro Colonic Material Stability Assay. This assay was used to assess the stability of an acylated active agent in a large intestine. All experiments were performed in an anaerobic chamber containing 90% nitrogen, 5% hydrogen and 5% carbon dioxide. Colonic material was resuspended as a slurry (15% w/v final concentration) in pre-reduced, anaerobically sterilized dilution blanks (Anaerobe Systems AS-908). The colonic material was then inoculated into 96 well plates containing YCFAC media (Anaerobe Systems AS-680) or other suitable media (6.7 μL slurry into 1 mL total media). Compounds or groups of compounds were added to each individual well to reach a final analyte concentration of 1 or 10 μM, and the material was mixed by pipetting. Sample was removed after set timepoints (0, 120, 240, 480, 1440, 2880 minutes after initiation of the assay), quenched with acetonitrile containing internal standard, and analyzed by LC/MS.

[3] = Assay 1. Stability in Simulated Gastric Fluid (SGF)
Outline: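 Degradation rate from LC/MS of acetonitrile-quenched aliquots (T0, then regular intervals). Fresh SGF (pH 1.6 NaCl, FaSSIF powder, pepsin 0.1 mg/mL) held compound at 1 μM final, 37° C; 1 mM DMSO stock.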

[4] = SGF pH 1.6 with pepsin, 1 μM, 37° C.

Row | SMILES | Assay 2 (SIF) (% @ Remaining 4 hours) [1] | Assay 3 (% Remaining at 24 h) [2] | Assay 1 (SGF) (% Remaining @ 1 hour) [3, 4] | Assay 1 (SGF) (% Remaining @ 1 hour) ([3]; Run 1, SGF) | Assay 1 (SGF) (% Remaining @ 1 hour) ([3]; Run 2, SGF)
1 | CCCC(=O)O[C@@H]1[C@@H](OC(=O)CCC)[C@@H](Oc2ccc(N)cc2C(=O)O)OC[C@@H]1OC(=O)CCC [Compound 22, 5-amino-2-[(2R,3R,4S,5S)-3,4,5-tri(butanoyloxy)tetrahydropyran-2-yl]oxy-benzoic acid] | B (25-75% of the tested compound remaining) | B (25-75% of the tested compound remaining) | C (>75% of the tested compound remaining) |  | 
2 | CCCC(=O)O[C@@H]1[C@@H](OC(=O)CCC)[C@H](C)O[C@@H](Oc2ccc(N)cc2C(=O)O)[C@@H]1OC(=O)CCC [Compound 39, 5-amino-2-(((2S,3R,4R,5S,6S)-3,4,5-tris(butyryloxy)-6-methyltetrahydro-2H-pyran-2-yl)oxy)benzoic acid] | B (25-75% of the tested compound remaining) | C (>75% of the tested compound remaining) | C (>75% of the tested compound remaining) |  | 
3 | CCCC(=O)O[C@@H]1[C@@H](OC(=O)CCC)[C@H](C)O[C@@H](Oc2ccccc2C(=O)O)[C@@H]1OC(=O)CCC [Compound 40, 2-(((2S,3R,4R,5S,6S)-3,4,5-tris(butyryloxy)-6-methyltetrahydro-2H-pyran-2-yl)oxy)benzoic acid] | C (>75% of the tested compound remaining) | C (>75% of the tested compound remaining) | C (>75% of the tested compound remaining) |  | 
4 | CCC(=O)O[C@H]1O[C@H](C(=O)O)[C@@H](OC(=O)CC)[C@H](OC(=O)CC)[C@H]1OC(=O)CC [Compound 46, (2S,3S,4S,5R,6R)-3,4,5,6-tetrakis(propanoyloxy)oxane-2-carboxylic acid] | A (<25% of the tested compound remaining) | A (<25% of the tested compound remaining) | C (>75% of the tested compound remaining) |  | 
5 | CCC(=O)O[C@@H]1O[C@H](C(=O)O)[C@@H](OC(=O)CC)[C@H](OC(=O)CC)[C@H]1OC(=O)CC [Compound 47, (2S,3S,4S,5R,6S)-3,4,5,6-tetrakis(propanoyloxy)oxane-2-carboxylic acid] | A (<25% of the tested compound remaining) | A (<25% of the tested compound remaining) | C (>75% of the tested compound remaining) |  | 
6 | O=C(CCc1c[nH]c2ccccc12)O[C@@H]1O[C@H](C(=O)O)[C@@H](OC(=O)CCc2c[nH]c3ccccc23)[C@H](OC(=O)CCc2c[nH]c3ccccc23)[C@H]1OC(=O)CCc1c[nH]c2ccccc12 [Compound 49, (2S,3S,4S,5R,6S)-3,4,5,6-tetrakis({[3-(1H-indol-3-yl)propanoyl]oxy})oxane-2-carboxylic acid] | A (<25% of the tested compound remaining) | A (<25% of the tested compound remaining) |  | B (25-75% of the tested compound remaining) | C (>75% of the tested compound remaining)
7 | CCCC(=O)O[C@H]1[C@H](OC)OC[C@@H](OC(=O)CCC)[C@H]1OC(=O)CCC [Compound 50, (2R,3R,4R,5R)-3,5-bis(butanoyloxy)-2-methoxyoxan-4-yl butanoate] | A (<25% of the tested compound remaining) | A (<25% of the tested compound remaining) | C (>75% of the tested compound remaining) |  | 
8 | CCC(=O)O[C@H]1[C@H](OC)OC[C@@H](OC(=O)CC)[C@H]1OC(=O)CC [Compound 51, (2R,3R,4R,5R)-2-methoxy-3,5-bis(propanoyloxy)oxan-4-yl propanoate] | C (>75% of the tested compound remaining) | B (25-75% of the tested compound remaining) | C (>75% of the tested compound remaining) |  | 
9 | CCCC(=O)O[C@@H]1[C@@H](OC(=O)CCC)[C@@H](OC)OC[C@@H]1OC(=O)CCC [Compound 52, (2S,3R,4S,5S)-3,5-bis(butanoyloxy)-2-methoxyoxan-4-yl butanoate] | B (25-75% of the tested compound remaining) | B (25-75% of the tested compound remaining) | B (25-75% of the tested compound remaining) |  | 
10 | CCC(=O)O[C@@H]1[C@@H](OC(=O)CC)[C@@H](OC)OC[C@@H]1OC(=O)CC [Compound 53, (2S,3R,4S,5S)-2-methoxy-3,5-bis(propanoyloxy)oxan-4-yl propanoate] | B (25-75% of the tested compound remaining) | C (>75% of the tested compound remaining) | C (>75% of the tested compound remaining) |  | 
11 | CCC(=O)OC[C@H]1O[C@H](OC)[C@H](OC(=O)CC)[C@@H](OC(=O)CC)[C@@H]1OC(=O)CC [Compound 55, [(2R,3R,4S,5R,6S)-6-methoxy-3,4,5-tris(propanoyloxy)oxan-2-yl]methyl propanoate] | A (<25% of the tested compound remaining) | A (<25% of the tested compound remaining) | C (>75% of the tested compound remaining) |  | 
12 | CCC(=O)OC[C@H]1O[C@H](OC)[C@H](OC(=O)CC)[C@@H](OC(=O)CC)[C@H]1OC(=O)CC [Compound 57, [(2R,3S,4S,5R,6S)-6-methoxy-3,4,5-tris(propanoyloxy)oxan-2-yl]methyl propanoate] | A (<25% of the tested compound remaining) | A (<25% of the tested compound remaining) | C (>75% of the tested compound remaining) |  | 
13 | C[C@@H]1OC(O)[C@@H](OC(=O)CCc2c[nH]c3ccccc23)[C@H](OC(=O)CCc2c[nH]c3ccccc23)[C@@H]1OC(=O)CCc1c[nH]c2ccccc12 (stereo partly drawn) [Compound 62, (2S,3R,4R,5S)-6-hydroxy-4,5-bis({[3-(1H-indol-3-yl)propanoyl]oxy})-2-methyloxan-3-yl 3-(1H-indol-3-yl)propanoate] | A (<25% of the tested compound remaining) | C (>75% of the tested compound remaining) | C (>75% of the tested compound remaining) |  | 
14 | CCC(=O)O[C@@H]1[C@H](OC)OC[C@@H](OC(=O)CC)[C@H]1OC(=O)CC [Compound 68, (2R,3S,4R,5R)-2-methoxy-3,5-bis(propanoyloxy)oxan-4-yl propanoate] | A (<25% of the tested compound remaining) | B (25-75% of the tested compound remaining) | C (>75% of the tested compound remaining) |  | 
15 | O=C(CCc1c[nH]c2ccccc12)O[C@@H]1OC[C@H](OC(=O)CCc2c[nH]c3ccccc23)[C@H](OC(=O)CCc2c[nH]c3ccccc23)[C@H]1OC(=O)CCc1c[nH]c2ccccc12 [Compound 69, (2S,3R,4S,5S)-3,4,5-tris({[3-(1H-indol-3-yl)propanoyl]oxy})oxan-2-yl 3-(1H-indol-3-yl)propanoate] | A (<25% of the tested compound remaining) | A (<25% of the tested compound remaining) | B (25-75% of the tested compound remaining) |  | 
